Source: PubChem BioAssay AID624270 (Broad Institute, 2012)
Activity calls are given as the source filed them. The rule behind the calls is not given here.

test system: not listed separately; assay: V cholerae BH1578 lux luminescence, light production inducers, dose response, confirmatory, 6 h (AID 624270); settings: V. cholerae BH1578 lux luminescence, 6 h; at 35 µM (top of the series)

| SMILES | activation (light induction) |
| --- | --- |
| CCn1nnc(NCc2ccc(C)cc2)n1 | 0.27% (inactive) |
| Cc1ccc(CC(=O)NC2CCCC2)cc1 | 15.8% (inactive) |
| CCn1c(CC(=O)Nc2cccc(Cl)c2Cl)nnc1SCCOc1ccc(OC)cc1 | 1.79% (inactive) |
| CCCn1nnnc1NCc1ccccc1Cl | 1.22% (inactive) |

test system: V. cholerae BH1578 lux luminescence, 6 h; assay: as above; settings: not given

| SMILES | AC50 |
| --- | --- |
| O=C(Cc1ccc(-c2ccccc2)cc1)NC1CCCC1 | 104 nM |
| CCCn1nnnc1NCc1ccc(C(C)C)cc1 | 45.2 nM |
| COc1ccccc1NC(=O)COC(=O)c1ccc(C)cc1 | 397 nM |
| Cc1c(Cl)cccc1-n1cnc(=O)c2ccccc21 | > 35000 nM (inactive) |
| Cc1ccc2cc3c(NC(=O)c4ccco4)nn(C)c3nc2c1 | 2870 nM |
| CCn1nnnc1NCc1ccc(N2CCCC2)cc1 | 4.14 nM |
| CCC(C)NC(=O)Cc1ccc(-c2ccccc2)cc1 (stereo not given) | 1240 nM |
| O=C(Nc1nnc(-c2ccc3c(c2)OCCO3)o1)C1CCCCC1 | 1380 nM |
| CCOc1ccc(Nc2ccc3nonc3c2[N+](=O)[O-])cc1 | 183 nM |
| CCCn1nnnc1NCc1ccc(N2CCCC2)cc1 | 13.8 nM |
| CCCn1nnnc1NCc1ccc(N(CC)CC)cc1 | 54.8 nM |
| COc1ccccc1NC(=O)COC(=O)c1oc2ccccc2c1C | 1570 nM |
| Cc1ccc(OCCNC(=O)c2cccc(C)c2)cc1 | 96 nM |
| COc1ccccc1NC(=O)COC(=O)c1cc2c(s1)CCC2 | 66.2 nM |
| O=c1ncn(-c2cccc(Cl)c2)c2ccccc12 | 1.29 nM |
| COc1ccc(Cl)cc1NC(=O)COC(=O)c1ccc(C)o1 | 63.8 nM |
